Test results: patent US9862690B2, “Treatment of pulmonary and other conditions” (University of Pittsburgh—of the Commonwealth System of …, priority 2013, dated 2018)

Tests used:
[1] = FRAP assay (ferric reduction/anti-oxidant power); assay type: biochemical; conditions: 10 μmol compound, 5 min, 593 nm; Troxol reference
Procedure: The antioxidant activity of PB141 was determined by ferric reduction/anti-oxidant power (FRAP) assay in which the compound is reacted with ferric tripyridyltriazine complex. Data are representative of one of two independent experiments; n=3; *** P<0.001 versus Troxol.
The antioxidant activity of PB141 or PB157 was determined by ferric reduction/anti-oxidant power (FRAP) assay in which the compounds are reacted with ferric tripyridyltriazine complex. The ferric complex was prepared at room temperature by reaction of ferric chloride (16.7 mmol) and 2,4,6-trispyridyl-s-triazine (8.33 mmol) in pH 3.6 acetate buffer (0.25 M). The FRAP reagent was used immediately after preparation. PB141 or PB157 (10 μmol) was added to the FRAP reagent (1 ml) and mixed by vortexing. The reaction was allowed to stabilize for 5 min and the absorbance was measured. The antioxidant activities of these compounds were determined by the ability to reduce the ferric complex to a […] ferrous complex, monitored at 593 nm. Troxol (10 μmol) was used as reference standard.

BEAS-2B cells = assay type: cell-based
Procedure: To evaluate cell viability, apoptosis, and cytotoxicity, the Apo Tox-Glo Triplex assay was used according to the manufacturer's instructions (Promega, Madison, Wis.). Briefly, the BEAS-2B cells were plated at 2×10^4 cells/well in 100 μl medium in an opaque walled, clear-bottomed, 96-well plate. After 24 hr culture, they were treated for a further indicated time with different concentrations of PB141 or PB157. At the end of the culture period, 20 μl viability/cytotoxicity reagent was added to each well, mixed by orbital shaking (300 r.p.m. for 30 s) and incubated for 30 min at 37° C. Fluorescence was then measured with excitation at 400 nm and emission at 505 nm to assess cell viability, and 485 nm excitation and 520 nm emission to assess cytotoxicity; both were quantified as relative fluorescence units (RFU). Then, 100 μl Caspase-Glo 3/7 reagent was added to each well, mixed by orbital shaking (300 r.p.m. for 30 s) and incubated for 30 min at room temperature. Luminescence was measured to assess caspase activation as a marker of apoptosis and quantified as relative luminescence units. Results for PB141 and PB157 were similar.

[2] = TRAP assay (quenching of ABTS+ radical cation); assay type: biochemical; conditions: 10 μmol compound, 5 min, absorbance 734 nm; Troxol reference
Procedure: The anti-oxidant activities of PB 141 were determined by the ability of this compound to react with pre-formed radical monocation of 2,2′-azinobis-(3-ethylbenzothiazoline)-6-sulfonic acid (ABTS^+). Data are representative of one of two independent experiments; n=3; *** P<0.001 versus Troxol.
The anti-oxidant activity of PB141 or PB157 was determined by the ability of these compounds to react with the pre-formed radical monocation of 2,2′-azinobis-(3-ethylbenzothiazoline)-6-sulfonic acid (ABTS^+). ABTS (1.8 mmol) was reacted overnight with potassium persulfate (0.63 mmol) in double distilled water, at room temperature in the dark, to generate the dark blue ABTS^+ radical cation. This radical cation has a maximum absorption at 734 nm. Immediately prior to the experiment, ABTS^+ was diluted with absolute ethanol to an absorbance of approximately 0.7 at 734 nm. PB141 or PB157 (10 μmol) was added to ABTS^+ (1 ml) and mixed by vortexing. The reaction was allowed to stabilize for 5 min and the absorbance was measured. The anti-oxidant activities of these compounds were determined by their ability to quench the color of the radical cation. Troxol (10 μmol) was used as reference standard.

CC(=O)N[C@@H](CSC(c1cnccn1)C1CCCC(C(SC[C@H](NC(C)=O)C(=O)O)c2cnccn2)C1=O)C(=O)O (stereo partly shown) [PB157]
Antioxidant activity (reduction of ferric complex) [1]: highly significant and approximately equal | Cytotoxicity (BEAS-2B cells): without exhibiting cytotoxicity | Apoptosis (caspase 3/7 activation) (BEAS-2B cells; different concentrations, data not shown): induced apoptosis | Anti-oxidant activity (ability to quench ABTS+ radical cation) [2]: clearly demonstrated
